Test in all cases: relative viability (nuclei count vs DMSO), 5 days (fraction); higher = more cells survive
Compound in the assay “Axitinib + Foretinib”: CNC(=O)c1ccccc1Sc1ccc2c(/C=C/c3ccccn3)n[nH]c2c1 [Axitinib] + COc1cc2c(Oc3ccc(NC(=O)C4(C(=O)Nc5ccc(F)cc5)CC4)cc3F)ccnc2cc1OCCCN1CCOCC1 [Foretinib] (partner 0.25 µM)
The method in brief:
(§1)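 The day after seeding in 1536-well plates, lung cancer cell lines were treated by pin tool with a single drug, or with a fixed anchor-drug dose together with five library-drug doses (not always all listed) in √10 steps. After 5 days, a combined fix-and-stain solution (final 0.05% Triton X-100, 1% formaldehyde, 1 ug/ml Hoechst) was added. Nuclei counted on 4× images gave relative viability as treated counts over vehicle counts, reported as the median of duplicate plates.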

Compound in the assay “Axitinib + Bortezomib”: CNC(=O)c1ccccc1Sc1ccc2c(/C=C/c3ccccn3)n[nH]c2c1 [Axitinib] + CC(C)C[C@H](NC(=O)[C@H](Cc1ccccc1)NC(=O)c1cnccn1)B(O)O [Bortezomib] (partner 0.002 µM)
An outline of the steps:
as §1

Compound in the assay “Axitinib + Lapatinib”: CNC(=O)c1ccccc1Sc1ccc2c(/C=C/c3ccccn3)n[nH]c2c1 [Axitinib] + CS(=O)(=O)CCNCc1ccc(-c2ccc3ncnc(Nc4ccc(OCc5cccc(F)c5)c(Cl)c4)c3c2)o1 [Lapatinib] (partner 2 µM)
The method in brief:
as §1

Compound in assay [1]: CC1=CC=C(C=C1)C(=O)CN2C3=C(CCCC3)SC2=N [Pifithrin_alpha] + CC(=O)c1c(C)c2cnc(Nc3ccc(N4CCNCC4)cn3)nc2n(C2CCCC2)c1=O [Palbociclib] (partner 0.5 µM)
The method in brief: as §1

With 201T, the relative viability with Axitinib + Foretinib (first compound 0.005 µM) turned out to be 1.07; with Axitinib + Foretinib (first compound 0.01581 µM) it was 1.06; with Axitinib + Foretinib (first compound 0.05 µM), 0.972; with Axitinib + Foretinib (first compound 0.1581 µM), 1.17; with Axitinib + Foretinib (first compound 0.5 µM), 1.21; with Axitinib + Bortezomib (first compound 0.005 µM) it was 1.14. Further, the relative viability with Axitinib + Bortezomib (first compound 0.01581 µM) came to 1.08; in the assay with Axitinib + Bortezomib (first compound 0.05 µM), 1.06; in the assay with Axitinib + Bortezomib (first compound 0.1581 µM) it was 1.07; with Axitinib + Bortezomib (first compound 0.5 µM), 1.11; in the assay with Axitinib + Lapatinib (first compound 0.005 µM) it was 1.01; in the assay with Axitinib + Lapatinib (first compound 0.01581 µM) it was 1.03. The relative viability in the assay with Axitinib + Lapatinib (first compound 0.05 µM) is 1.07; with Axitinib + Lapatinib (first compound 0.1581 µM), 1.05; in the assay with Axitinib + Lapatinib (first compound 0.5 µM), 0.966; in assay [1] (first compound 1 µM) it was 0.349; in assay [1] (first compound 3.162 µM), 0.319; in assay [1] (first compound 10 µM) it was 0.344. The relative viability in assay [1] (first compound 31.62 µM) came out at 0.286; in assay [1] (first compound 100 µM) it was 0.376.
For the cell line A549, the relative viability worked out at 0.977 with Axitinib + Foretinib (first compound 0.005 µM); 0.973 with Axitinib + Foretinib (first compound 0.01581 µM); 0.972 with Axitinib + Foretinib (first compound 0.05 µM); 0.976 in the assay with Axitinib + Foretinib (first compound 0.1581 µM); 1.23 in the assay with Axitinib + Foretinib (first compound 0.5 µM); 0.896 with Axitinib + Lapatinib (first compound 0.005 µM). In addition, the relative viability turned out to be 1 with Axitinib + Lapatinib (first compound 0.01581 µM), 0.997 in the assay with Axitinib + Lapatinib (first compound 0.05 µM), 0.902 in the assay with Axitinib + Lapatinib (first compound 0.1581 µM) and 1.01 with Axitinib + Lapatinib (first compound 0.5 µM).
For the cell line A-427, the relative viability worked out at 1.12 in the assay with Axitinib + Foretinib (first compound 0.005 µM); 1.15 with Axitinib + Foretinib (first compound 0.01581 µM); 1.12 in the assay with Axitinib + Foretinib (first compound 0.05 µM); 0.94 with Axitinib + Foretinib (first compound 0.1581 µM); 1.26 in the assay with Axitinib + Foretinib (first compound 0.5 µM); 1.07 with Axitinib + Bortezomib (first compound 0.005 µM). The relative viability was found to be 1.04 in the assay with Axitinib + Bortezomib (first compound 0.01581 µM); 0.988 in the assay with Axitinib + Bortezomib (first compound 0.05 µM); 1.06 in the assay with Axitinib + Bortezomib (first compound 0.1581 µM); 1.13 with Axitinib + Bortezomib (first compound 0.5 µM); 1.1 with Axitinib + Lapatinib (first compound 0.005 µM); 1.01 with Axitinib + Lapatinib (first compound 0.01581 µM). The relative viability with Axitinib + Lapatinib (first compound 0.05 µM) was 1.08; in the assay with Axitinib + Lapatinib (first compound 0.1581 µM), 1.06; with Axitinib + Lapatinib (first compound 0.5 µM), 1.06; in assay [1] (first compound 1 µM), 0.5; in assay [1] (first compound 3.162 µM), 0.529; in assay [1] (first compound 10 µM), 0.497. For the same cell line, the relative viability in assay [1] (first compound 31.62 µM) was 0.447; in assay [1] (first compound 100 µM) it was 0.454.
For ABC-1, the relative viability with Axitinib + Foretinib (first compound 0.005 µM) came to 1.02; with Axitinib + Foretinib (first compound 0.01581 µM), 1.04; with Axitinib + Foretinib (first compound 0.05 µM), 1.17; with Axitinib + Foretinib (first compound 0.1581 µM), 0.916; with Axitinib + Foretinib (first compound 0.5 µM) it was 1.29; in the assay with Axitinib + Bortezomib (first compound 0.005 µM) it was 0.34. Also, the relative viability with Axitinib + Bortezomib (first compound 0.01581 µM) is 0.307; in the assay with Axitinib + Bortezomib (first compound 0.05 µM) it was 0.315; with Axitinib + Bortezomib (first compound 0.1581 µM) it was 0.254; in the assay with Axitinib + Bortezomib (first compound 0.5 µM), 0.289; in the assay with Axitinib + Lapatinib (first compound 0.005 µM), 1.19; with Axitinib + Lapatinib (first compound 0.01581 µM), 1.28. For the same cell line, the relative viability in the assay with Axitinib + Lapatinib (first compound 0.05 µM) was 1.01; with Axitinib + Lapatinib (first compound 0.1581 µM) it was 1.32; in the assay with Axitinib + Lapatinib (first compound 0.5 µM) it was 1.21; in assay [1] (first compound 3.162 µM), 0.839; in assay [1] (first compound 10 µM), 0.831; in assay [1] (first compound 31.62 µM) it was 0.462. In addition, in assay [1] (first compound 100 µM), the relative viability is 0.53.
Consider BEN, for which the relative viability with Axitinib + Foretinib (first compound 0.005 µM) came out at 0.662; with Axitinib + Foretinib (first compound 0.01581 µM) it was 0.514; in the assay with Axitinib + Foretinib (first compound 0.05 µM), 0.643; with Axitinib + Foretinib (first compound 0.1581 µM), 0.852; in the assay with Axitinib + Foretinib (first compound 0.5 µM), 0.573; in the assay with Axitinib + Bortezomib (first compound 0.005 µM), 0.804. Moreover, the relative viability in the assay with Axitinib + Bortezomib (first compound 0.01581 µM) came to 0.781; with Axitinib + Bortezomib (first compound 0.05 µM), 0.554; with Axitinib + Bortezomib (first compound 0.1581 µM) it was 0.75; in the assay with Axitinib + Bortezomib (first compound 0.5 µM), 0.543; with Axitinib + Lapatinib (first compound 0.005 µM) it was 0.695; with Axitinib + Lapatinib (first compound 0.01581 µM) it was 0.648. Besides, the relative viability with Axitinib + Lapatinib (first compound 0.05 µM) came to 0.592; with Axitinib + Lapatinib (first compound 0.1581 µM) it was 0.563; with Axitinib + Lapatinib (first compound 0.5 µM) it was 0.497; in assay [1] (first compound 1 µM), 0.487; in assay [1] (first compound 3.162 µM), 0.488; in assay [1] (first compound 10 µM) it was 0.456. Besides, the values for the relative viability in assay [1] (first compound 31.62 µM) and in assay [1] (first compound 100 µM) were 0.444 and 0.472, respectively.
Turning to CAL-12T, the relative viability is 1.13 with Axitinib + Foretinib (first compound 0.005 µM); 1.08 with Axitinib + Foretinib (first compound 0.01581 µM); 1.15 with Axitinib + Foretinib (first compound 0.05 µM); 1.17 with Axitinib + Foretinib (first compound 0.1581 µM); 1.21 in the assay with Axitinib + Foretinib (first compound 0.5 µM); 1.03 in the assay with Axitinib + Bortezomib (first compound 0.005 µM). The relative viability with Axitinib + Bortezomib (first compound 0.01581 µM) was 0.978; in the assay with Axitinib + Bortezomib (first compound 0.05 µM) it was 0.955; with Axitinib + Bortezomib (first compound 0.1581 µM), 1.11; with Axitinib + Bortezomib (first compound 0.5 µM) it was 0.965; in the assay with Axitinib + Lapatinib (first compound 0.005 µM), 0.712; in the assay with Axitinib + Lapatinib (first compound 0.01581 µM) it was 0.693. Further, the relative viability in the assay with Axitinib + Lapatinib (first compound 0.05 µM) is 0.609; in the assay with Axitinib + Lapatinib (first compound 0.1581 µM) it was 0.645; with Axitinib + Lapatinib (first compound 0.5 µM) it was 0.624; in assay [1] (first compound 1 µM), 0.364; in assay [1] (first compound 3.162 µM) it was 0.308; in assay [1] (first compound 10 µM), 0.436. For the same cell line, the relative viability in assay [1] (first compound 100 µM) came to 0.238.
With COR-L23, the relative viability in the assay with Axitinib + Foretinib (first compound 0.005 µM) worked out at 1.1; in the assay with Axitinib + Foretinib (first compound 0.01581 µM), 0.953; with Axitinib + Foretinib (first compound 0.05 µM) it was 1.13; in the assay with Axitinib + Foretinib (first compound 0.1581 µM), 0.948; with Axitinib + Foretinib (first compound 0.5 µM) it was 1.02; in the assay with Axitinib + Bortezomib (first compound 0.005 µM), 1.05. The relative viability in the assay with Axitinib + Bortezomib (first compound 0.01581 µM) turned out to be 1.04; with Axitinib + Bortezomib (first compound 0.05 µM) it was 0.943; with Axitinib + Bortezomib (first compound 0.1581 µM), 0.959; with Axitinib + Bortezomib (first compound 0.5 µM), 1.2; with Axitinib + Lapatinib (first compound 0.005 µM), 0.975; with Axitinib + Lapatinib (first compound 0.01581 µM), 0.963. Moreover, the relative viability in the assay with Axitinib + Lapatinib (first compound 0.05 µM) was found to be 1.12; in the assay with Axitinib + Lapatinib (first compound 0.1581 µM), 0.808; with Axitinib + Lapatinib (first compound 0.5 µM), 1.12; in assay [1] (first compound 1 µM), 0.287; in assay [1] (first compound 3.162 µM), 0.26; in assay [1] (first compound 10 µM), 0.281. Moreover, the relative viability in assay [1] (first compound 100 µM) was found to be 0.267.

Values taken from the supplement of paper PMC10307832.
